Calls of active or inactive are those of the source.
Assays:
Protein Tat = Protein Tat (Human immunodeficiency virus type 1 group M subtype B (isolate HXB2)(HIV-1), UniProt P04608); format: functional;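 note: tat binding to TAR RNA read out by fluorescence polarization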
[1] = HIV-1 Vif–A3G interaction blockers – biochemical, TR-FRET, GST-Vif 1-94, biotin-A3G peptide, dose response retest, primary screen (AID 1117319); format: functional;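 note: TR-FRET signal of purified GST-Vif binding a biotinylated A3G peptide; inhibitors lower the FRET signal by blocking Vif and A3G binding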
Major prion protein = Major prion protein (Homo sapiens, UniProt P04156); format: functional, cell-based
cells [2] = assay: cells
[3] = test system: Streptococcus sp. 'group A'; assay: Streptococcus pyogenes SK(-)GAS viability under kanamycin – luminescence, BacTiterGlo, confirmation, counter-screen for streptokinase expression inhibitor project, dose response (AID 1900); format: functional, organism-based
Streptokinase A = molecular target: T1, Streptokinase A (Streptococcus pyogenes serotype M1, UniProt P10520); assay: viability-normalized secreted streptokinase activity reduction – plasminogen activation absorbance, OD405, dose response (AID 1914); format: functional, Streptococcus pyogenes M1 GAS;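 note: secreted streptokinase activity via plasminogen activation per viability signal from cell pellet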
T1 sequence (P10520 whole entry): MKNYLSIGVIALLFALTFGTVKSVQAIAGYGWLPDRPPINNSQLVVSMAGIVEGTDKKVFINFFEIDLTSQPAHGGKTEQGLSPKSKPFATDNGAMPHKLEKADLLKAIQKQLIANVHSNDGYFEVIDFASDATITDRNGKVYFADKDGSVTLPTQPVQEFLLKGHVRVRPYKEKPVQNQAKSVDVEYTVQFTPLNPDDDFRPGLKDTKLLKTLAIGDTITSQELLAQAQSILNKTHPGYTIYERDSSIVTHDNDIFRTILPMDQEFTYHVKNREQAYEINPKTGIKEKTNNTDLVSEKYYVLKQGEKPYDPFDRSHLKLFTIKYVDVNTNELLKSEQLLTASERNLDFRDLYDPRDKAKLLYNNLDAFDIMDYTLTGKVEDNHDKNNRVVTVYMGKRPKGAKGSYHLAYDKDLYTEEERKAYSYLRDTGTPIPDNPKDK

Streptococcus = assay: GAS UMAA2166 growth inhibition – luminescence, BacTiterGlo, counter-screen for streptokinase expression inhibitor project, dose response (AID 1915); format: functional, organism-based;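 note: potency for reduction of bacterial viability or growth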
[4] = viability inhibitors of stage V gametocytes – luminescence, dose response (AID 1117278); format: functional, cell-based;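 note: gametocytes exposed to compound for 24 hours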
[5] = viability loss in human Jurkat cells – cell-based, luminescence, cytotoxicity control for P. falciparum gametocyte viability project, dose response (AID 1117277); format: functional;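 note: potency reflects loss of cellular ATP meaning fewer viable cells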
[6] = Counterscreen for […] of the human trace amine associated receptor 1 (TAAR1): Fluorescence-based cell-based high throughput dose response assay to identify nonselective Ga16 agonists.; format: functional
[7] = molecular target: T2, Trace amine-associated receptor 1 (Homo sapiens, UniProt Q96RJ0); assay: Fluorescence-based cell-based high throughput dose response assay to identify antagonists of the human trace amine associated receptor 1 (TAAR1).; format: functional
T2 sequence (Q96RJ0 whole entry): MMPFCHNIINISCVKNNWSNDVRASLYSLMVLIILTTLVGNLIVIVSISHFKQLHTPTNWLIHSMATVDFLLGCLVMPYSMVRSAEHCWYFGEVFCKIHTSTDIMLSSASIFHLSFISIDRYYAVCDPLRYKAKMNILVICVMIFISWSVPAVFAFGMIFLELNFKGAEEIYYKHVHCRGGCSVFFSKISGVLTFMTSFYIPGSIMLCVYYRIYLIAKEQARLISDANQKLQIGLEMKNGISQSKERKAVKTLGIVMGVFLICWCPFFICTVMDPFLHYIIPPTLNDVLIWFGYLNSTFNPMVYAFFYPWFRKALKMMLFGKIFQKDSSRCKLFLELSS

[8] = Counterscreen for antagonists of the human trace amine associated receptor 1 (hTAAR1): Fluorescence-based cell-based high throughput dose response assay to identify nonselective Ga16 antagonists.; format: functional
[9] = molecular target: T2, Trace amine-associated receptor 1; assay: Counterscreen for antagonists of the human trace amine associated receptor 1 (hTAAR1): Fluorescence-based cell-based high throughput dose response assay to identify TAAR1 Agonists.; format: functional
[10] = viability loss in THP-1 monocytes – THP-1 cells, cytotoxicity control for Vif-APOBEC3G degradation inhibitor project, dose response (AID 1117359); format: functional; settings: THP-1
Paired box protein Pax-8 = Paired box protein Pax-8 (Homo sapiens, UniProt Q06710); assay: PAX8 transcriptional activity inhibition in RMG-I – RMG-I cells, luciferase, cherry-pick, dose response (AID 687027); format: functional, cell-based;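 note: luciferase reporter driven by Pax8 target thyroperoxidase promoter measured by SteadyGlo luminescence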
[11] = A2780 cell killing – plate reader, dry powder samples, cytotoxicity control, dose response (AID 743046); format: functional, cell-based
[12] = molecular target: T3, Oxysterols receptor LXR-beta (Homo sapiens, UniProt P55055); format: functional, cell-based;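 note: Cell-based luminescence dose-response assay of agonist activity at LXR, run as a confirmatory counterscreen to a daf-12 agonist screen; HEK293 cells with Gal4-LXR fusion and GAL4-driven luciferase reporter; agonist potency from rising luciferase signal of a Gal4-LXR reporter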
T3 sequence (P55055 whole entry): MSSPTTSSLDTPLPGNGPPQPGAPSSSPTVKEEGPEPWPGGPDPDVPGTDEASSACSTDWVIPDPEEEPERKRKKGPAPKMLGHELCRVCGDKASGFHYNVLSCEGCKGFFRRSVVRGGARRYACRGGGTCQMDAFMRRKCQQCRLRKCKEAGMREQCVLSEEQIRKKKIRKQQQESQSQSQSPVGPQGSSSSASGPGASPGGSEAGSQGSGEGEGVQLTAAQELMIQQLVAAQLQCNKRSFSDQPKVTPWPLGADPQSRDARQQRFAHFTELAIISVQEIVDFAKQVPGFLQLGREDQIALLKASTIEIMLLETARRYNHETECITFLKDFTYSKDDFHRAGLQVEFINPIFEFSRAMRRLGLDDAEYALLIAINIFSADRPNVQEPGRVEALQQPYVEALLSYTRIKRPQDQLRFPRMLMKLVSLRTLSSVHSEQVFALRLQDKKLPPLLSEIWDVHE

cells [13] = assay: cells; remark: listed apart in the source
[14] = toxicity to HepG2 liver cells – cell-based, plate reader, dry powder, set 6, cytotoxicity control, dose response (AID 743311); format: functional
cells [15] = settings: HEK293
[16] = toxicity to A549 lung cells – cell-based, plate reader, dry powder, set 6, cytotoxicity control, dose response (AID 743312); format: functional
[17] = growth inhibition of yeast DHODH-expressing 3D7 parasites – SYBR Green, dry powder samples, dose response (AID 1159570); format: functional, cell-based;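 note: parasite growth measured after 72 hours of compound exposure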
[18] = P. falciparum Dd2 growth inhibitors, dose response, SYBR Green, cherry-picked samples (AID 1159567); format: functional, cell-based
[19] = Dd2 malaria parasite growth inhibition potency – SYBR Green, dry powder samples, dose response (AID 1159566); format: functional, cell-based;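 note: potency for growth inhibition with lower SYBR green DNA signal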
[20] = growth inhibition of PfATP4-mutant resistant parasites – NITD609-resistant line, SYBR Green, dry powder, dose response (AID 1159571); format: functional, cell-based;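 note: parasites synchronized at ring stage by sorbitol before testing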
[21] = glucagon-like peptide-1 release potency in STC-1, concentration-response, half-maximal inhibitory concentration in the STC-1 line (AID 1117345); format: functional, cell-based
[22] = Potency on glucagon-like peptide 1 release, dose-response in NCI-H716 cell line, half maximal inhibitory concentration (AID 1117344); format: functional, cell-based

Structure (SMILES): CC(=O)C1=C(O)C(=O)N(Cc2ccco2)C1c1ccc(F)cc1 (stereo not drawn)
- IC50 (Protein Tat): > 100 µM (active)
- IC50 [1]: > 100 µM (active)

Structure (SMILES): CC(C)(C)c1nc(SCC(=O)NNC(=O)c2ccccc2)c2ccccc2n1
- IC50 (Major prion protein): 5.46 µM (active)
- IC50 (cells [2]): > 138 µM (inactive)

Structure (SMILES): COc1ccc2ncc(S(=O)(=O)c3ccccc3)c(N3CCN(c4ccccc4)CC3)c2c1
- EC50 [3]: 9.42 µM (active)
- EC50 (Streptokinase A): > 150 µM (not active)
- EC50 (Streptococcus): 74.8 µM (active)
- IC50 [4]: > 109 µM (inactive)
- IC50 [5]: > 83.3 µM (inactive)

Structure (SMILES): O=[N+]([O-])c1ccc(-c2c(-c3ccccc3)ncc3ccc(F)cc23)cc1
- EC50 [6]: > 29.9 µM (inactive)
- IC50 [7]: 1.83 µM (active)
- IC50 [8]: > 29.9 µM (inactive)
- EC50 [9]: > 29.9 µM (inactive)

Structure (SMILES): COc1cccc(-c2nc(CS(=O)(=O)CC(=O)NC3CC3)c(C)o2)c1
- CC50 [10]: > 40 µM (active)

Structure (SMILES): C[C@H]1CN([C@@H](C)CO)C(=O)Cc2cc(NC(=O)Nc3ccc(C(F)(F)F)cc3)ccc2O[C@H]1CN(C)C(=O)Nc1ccc(C(F)(F)F)cc1
- AC50 (Paired box protein Pax-8): 13 µM (active)
- AC50 [11]: 25.8 µM (active)

Structure (SMILES): Cc1ccsc1/C=N/N=C/c1sccc1C
- EC50 [12]: > 67.5 µM (inactive)
- EC50 (cells [13]): > 67.5 µM (inactive)

Structure (SMILES): CC(C)(C)c1ccc(OCCn2cnc3ccccc32)c(Cl)c1
- AC50 [14]: 36.6 µM (active)
- AC50 (cells [15]): 37.4 µM (active)

Structure (SMILES): CC(C)(C)c1ccc(OCCn2c(CO)nc3ccccc32)cc1
- AC50 [16]: 20.6 µM (active)
- AC50 (cells [15]): 21.6 µM (active)

Structure (SMILES): OC[C@H]1CC[C@@H]2O[C@H](CCc3ccc(C#CCc4ccccc4)cc3)[C@H](n3cc(-c4ccccc4)nn3)C[C@@H]2O1
- AC50 [17]: 1.39 µM (active)
- AC50 [18]: 0.739 µM (active)
- AC50 [19]: 0.407 µM (active)
- AC50 [20]: 0.665 µM (active)

Structure (SMILES): O=c1oc2ccccc2c(O)c1C(CC(O)c1ccc(-c2ccc(Br)cc2)cc1)c1ccccc1 (stereo not drawn) [BROMODIOLONE]
- IC50 [21]: 9.16 µM (inactive)
- IC50 [22]: > 40 µM (inactive)

Source: ChEMBL document CHEMBL1201862, “PubChem BioAssay data set” (2004)
